Non-standard residues stand in square brackets, D forms with d. Residues, ends and D or L forms follow the SMILES beside them. *: point of attachment. Cys(free,S-linked) = N[C@@H](CS*)C(=O)O; pGlu = O=C1CC[C@@H](C(=O)O)N1; Aze = O=C(O)[C@@H]1CCN1

The first test concerns male Wistar rats. Nature of the test: one-trial passive avoidance test: improvement of experimental retrograde amnesia by cycloheximide. Type of test: in vivo, rat. Particulars: dose 0.1 ng/kg, given 1 h before electro-shock (0.5 mA); cycloheximide 2.7 to 3.0 mg/kg s.c.; retention tested at 48 hours; control = cycloheximide alone. On the procedure: 221, pp. […], 1983. […] At 48 hours after the administration was made, memory retention of the rats were tested.
With `N=C(N)NCCC[C@H](NC(=O)[C@@H]1CCCN1C(=O)[C@H](CO)NC(=O)[C@H](CC(N)=O)NC(=O)[C@@H]1CCC(=O)N1)C(=O)NCC(N)=O` [Example 21, pGlu-Asn-Ser-Pro-Arg-Gly-NH2 acetate] (HELM PEPTIDE1{[Glp].N.S.P.R.G.[am]}$$$$V2.0), the “Effect (%): ratio of response latent period of each group to that of the control groups” value (shortened to “Effect (%): ratio”) worked out at 353%.

For `N=C(N)NCCC[C@H](NC(=O)[C@@H]1CCCN1C(=O)[C@H](CO)NC(=O)[C@@H]1CCCN1)C(=O)O` [Example 27, H-Pro-Ser-Pro-Arg-OH acetate] (H-PSPR-OH), the “Effect (%): ratio” value was 213%.

The test is the same for the next values; noted with them: dose 1 ng/kg, given 1 h before electro-shock (0.5 mA); cycloheximide 2.7 to 3.0 mg/kg s.c.; retention tested at 48 hours; control = cycloheximide alone.
For the compound `N=C(N)NCCC[C@H](NC(=O)[C@@H]1CCN1C(=O)[C@H](CSSC[C@H](N)C(=O)O)NC(=O)[C@H](CC(N)=O)NC(=O)[C@@H]1CCC(=O)N1)C(=O)NCC(N)=O` [Example 6] ([pGlu]NC(Cys(free,S-linked))[Aze]RG-NH2), the “Effect (%): ratio” value stood at 239%.

As for `C[C@H](NC(=O)[C@@H](N)CC(N)=O)C(=O)N1CCC[C@H]1C(=O)N[C@@H](CCCNC(=N)N)C(=O)O` [Example 9, H-Asn-Ala-Pro-Arg-OH acetate] (H-NAPR-OH), the “Effect (%): ratio” value turned out to be 460%.

For `N=C(N)NCCC[C@H](NC(=O)[C@@H]1CCCCN1C(=O)[C@H](CO)NC(=O)[C@@H](N)CC(N)=O)C(=O)O` [Example 12, H-Asn Ser-Pip-Arg-OH acetate] (HELM PEPTIDE1{N.S.[O=C([C@@H]1CCCCN1[*:1])[*:2]].R}$$$$V2.0), the “Effect (%): ratio” value was 235%.

For `N=C(N)NCCC[C@H](NC(=O)[C@@H]1CCCN1C(=O)[C@H](CSSC[C@H](N)C(=O)O)NC(=O)[C@@H]1CCCN1)C(=O)NCC(N)=O` [Example 17] (H-PC(Cys(free,S-linked))PRG-NH2), the “Effect (%): ratio” value was determined as 365%.

(Values after patent publication US5112947A, “Peptides, and antidementia agents containing the same” (Nippon Chemiphar Co., Ltd., priority 1989, dated 1992).)
